Data reported in US20240199587A1, “HETEROCYCLIC COMPOUNDS” (Hoffmann-La Roche Inc., priority 2021, published 2024).

target: T1, MAGL (Homo sapiens, UniProt Q99685); assay: 2-AG assay (MAGL inhibitory activity, hydrolysis of 2-arachidonoylglycerol to arachidonic acid followed by mass spectrometry); format: biochemical; settings: 8 μM 2-arachidonoylglycerol, 15 min pre-incubation, 30 min incubation at RT, RapidFire MS readout
T1 sequence (Q99685 1-303): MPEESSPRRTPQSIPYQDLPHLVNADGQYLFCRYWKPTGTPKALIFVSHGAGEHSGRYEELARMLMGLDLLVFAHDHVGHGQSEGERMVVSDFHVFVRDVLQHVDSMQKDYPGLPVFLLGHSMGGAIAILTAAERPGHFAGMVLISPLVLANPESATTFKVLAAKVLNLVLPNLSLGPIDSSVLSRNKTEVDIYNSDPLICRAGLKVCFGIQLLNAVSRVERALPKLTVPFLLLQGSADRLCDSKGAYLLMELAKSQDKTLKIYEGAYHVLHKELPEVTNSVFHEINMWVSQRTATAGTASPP
Summary of the method: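 Human MAGL ([…] final) pre-incubated 15 min at RT with compound in 50 mM TRIS, 1 mM EDTA, 0.01% Tween-20, 2.5% DMSO; 8 μM 2-AG then added for 30 min at RT. Acetonitrile quench with d8-arachidonic acid; arachidonic acid measured by RapidFire SPE–MS/MS, activity from arachidonic acid/d8 ratio.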

Compound | IC50 [nM]
O=C(N1CC2(CCN(Cc3ccc(C(F)(F)F)cn3)CC2)C1)N1CC2(CC(n3cnc(C4CC4)n3)C2)C1 [Example 463, [6-(3-cyclopropyl-1,2,4-triazol-1-yl)-2-azaspiro[3.3]heptan-2-yl]-[7-[[5-(trifluoromethyl)-2-pyridyl]methyl]-2,7-diazaspiro[3.5]nonan-2-yl]methanone] | 2.42
O=C(O)c1ccccc1CN1CC2(C1)CN(C(=O)N1CC3(CC(n4cnc(C5CC5)n4)C3)C1)C2 [Example 313, 2-[[2-[6-(3-cyclopropyl-1,2,4-triazol-1-yl)-2-azaspiro[3.3]heptane-2-carbonyl]-2,6-diazaspiro[3.3]heptan-6-yl]methyl]benzoic acid] | 206
O=C(N1CC(c2cn(C3(C(F)(F)F)COC3)nn2)C1)N1CC2(CC(n3cnc(C4CC4)n3)C2)C1 [Example 167, [6-(3-cyclopropyl-1,2,4-triazol-1-yl)-2-azaspiro[3.3]heptan-2-yl]-[3-[1-[3-(trifluoromethyl)oxetan-3-yl]triazol-4-yl]azetidin-1-yl]methanone] | 85.5
O=C(N1CC2(CC(n3cnc(C4CC4)n3)C2)C1)N1CC2(C1)CN(S(=O)(=O)c1cc(F)cc(C(F)(F)F)c1)C2 [Example 226, [6-(3-cyclopropyl-1,2,4-triazol-1-yl)-2-azaspiro[3.3]heptan-2-yl]-[2-[3-fluoro-5-(trifluoromethyl)phenyl]sulfonyl-2,6-diazaspiro[3.3]heptan-6-yl]methanone] | 3.6
O=C(N1CC2(CC(Oc3cncc(Cl)c3)C2)C1)N1CC2(CC(n3cnc(C4CC4)n3)C2)C1 [Example 82, (6-((5-chloropyridin-3-yl)oxy)-2-azaspiro[3.3]heptan-2-yl)(6-(3-cyclopropyl-1H-1,2,4-triazol-1-yl)-2-azaspiro[3.3]heptan-2-yl)methanone] | 3.7
O=C(N1CC2(CC(n3cnc(C4(O)CC4)n3)C2)C1)N1CC2(CC[C@H](Cc3ncc(F)cc3F)C2)C1 (stereo in doubt) [Example 351, [6-[3-(1-hydroxycyclopropyl)-1,2,4-triazol-1-yl]-2-azaspiro[3.3]heptan-2-yl]-[(6S)-6-[(3,5-difluoro-2-pyridyl)methyl]-2-azaspiro[3.4]octan-2-yl]methanone] | 24.7
O=C(N1CC(OCc2ccc(S(=O)(=O)C(F)(F)F)cc2)C1)N1CC2(CC(c3ccc(C(F)(F)F)nc3)C2)C1 [Example 520, [6-[6-(trifluoromethyl)-3-pyridyl]-2-azaspiro[3.3]heptan-2-yl]-[3-[[4-(trifluoromethylsulfonyl)phenyl]methoxy]azetidin-1-yl]methanone] | 544
O=C(N1CC(c2ccc(NCC3(C(F)(F)F)CC3)nc2)C1)N1CC2(CC(n3cnc(C(F)(F)F)n3)C2)C1 [Example 424, [3-[6-[[1-(trifluoromethyl)cyclopropyl]methylamino]-3-pyridyl]azetidin-1-yl]-[6-[3-(trifluoromethyl)-1,2,4-triazol-1-yl]-2-azaspiro[3.3]heptan-2-yl]methanone] | 0.16
NC(=O)C1CC(F)(F)CCN1c1ccc(C2CN(C(=O)N3CC4(CC(n5cnc(C6CC6)n5)C4)C3)C2)cc1 (centres unmarked) [Example 503, 1-[4-[1-[6-(3-cyclopropyl-1,2,4-triazol-1-yl)-2-azaspiro[3.3]heptane-2-carbonyl]azetidin-3-yl]phenyl]-4,4-difluoro-piperidine-2-carboxamide] | 1.53
O=C(N1CC2(CC(n3cnc(C4CC4)n3)C2)C1)N1CC2(CN(Cc3ncc(F)cc3F)C2)C1 [Example 258, [6-(3-cyclopropyl-1,2,4-triazol-1-yl)-2-azaspiro[3.3]heptan-2-yl]-[6-[(3,5-difluoro-2-pyridyl)methyl]-2,6-diazaspiro[3.3]heptan-2-yl]methanone] | 19.4
COC(=O)C(C)(C)c1cccc(OC2CN(C(=O)N3CC4(CC(n5cnc(C6CC6)n5)C4)C3)C2)c1 [Example 200, methyl 2-[3-[1-[6-(3-cyclopropyl-1,2,4-triazol-1-yl)-2-azaspiro[3.3]heptane-2-carbonyl]azetidin-3-yl]oxyphenyl]-2-methyl-propanoate] | 0.7
O=C(N1CC(c2cnc(NCC3(C(F)(F)F)CC3)cn2)C1)N1CC2(CC(n3cnc(C4CC4)n3)C2)C1 [Example 470, [6-(3-cyclopropyl-1,2,4-triazol-1-yl)-2-azaspiro[3.3]heptan-2-yl]-[3-[5-[[1-(trifluoromethyl)cyclopropyl]methylamino]pyrazin-2-yl]azetidin-1-yl]methanone] | 0.42
O=C(N1CC2(CC(n3cnc(C4(O)CC4)n3)C2)C1)N1CC2(CCN(Cc3ccc(S(=O)(=O)C(F)(F)F)cc3)C2)C1 [Example 369, [6-[3-(1-hydroxycyclopropyl)-1,2,4-triazol-1-yl]-2-azaspiro[3.3]heptan-2-yl]-[7-[[4-(trifluoromethylsulfonyl)phenyl]methyl]-2,7-diazaspiro[3.4]octan-2-yl]methanone] | 49.3
O=C(N1CC(c2ccc(NC3CCS(=O)(=O)C3)nc2)C1)N1CC2(CC(n3cnc(C4CC4)n3)C2)C1 (centres unmarked) [Example 505, [6-(3-cyclopropyl-1,2,4-triazol-1-yl)-2-azaspiro[3.3]heptan-2-yl]-[3-[6-[(1,1-dioxothiolan-3-yl)amino]-3-pyridyl]azetidin-1-yl]methanone] | 32.3
O=C(N1CC(CNS(=O)(=O)c2ccc(F)cc2C(F)(F)F)C1)N1CC2(CC(n3cnc(C4CC4)n3)C2)C1 [Example 302] | 101
O=C(N1CC2(CC(n3cnc(C4CC4)n3)C2)C1)N1CC2(CCN(Cc3ccc(C(F)(F)F)cn3)C2)C1 [Example 439, [6-(3-cyclopropyl-1,2,4-triazol-1-yl)-2-azaspiro[3.3]heptan-2-yl]-[7-[[5-(trifluoromethyl)-2-pyridyl]methyl]-2,7-diazaspiro[3.4]octan-2-yl]methanone] | 3.74
O=C(N1CC(c2cc(F)c(OC(F)(F)F)c(F)c2)C1)N1CC2(CC(n3cnc(C4CC4)n3)C2)C1 [Example 85, [6-(3-cyclopropyl-1,2,4-triazol-1-yl)-2-azaspiro[3.3]heptan-2-yl]-[3-[3,5-difluoro-4-(trifluoromethoxy)phenyl]azetidin-1-yl]methanone] | 0.4
O=C(N1CC2(CC(Cc3ccc(S(=O)(=O)C4CC4)cc3)C2)C1)N1CC2(CC(n3cnc(C4(O)CC4)n3)C2)C1 [Example 364, [6-[(4-cyclopropylsulfonylphenyl)methyl]-2-azaspiro[3.3]heptan-2-yl]-[6-[3-(1-hydroxycyclopropyl)-1,2,4-triazol-1-yl]-2-azaspiro[3.3]heptan-2-yl]methanone] | 1.84
CP(C)(=O)c1ccc(CC2CC3(C2)CN(C(=O)N2CC4(CC(n5cnc(C6CC6)n5)C4)C2)C3)cc1 [Example 376, [6-(3-cyclopropyl-1,2,4-triazol-1-yl)-2-azaspiro[3.3]heptan-2-yl]-[6-[(4-dimethyl-phosphorylphenyl)methyl]-2-azaspiro[3.3]heptan-2-yl]methanone] | 4.07
O=C(N1CC(c2cnc(N3CC(C(F)(F)F)C3)nc2)C1)N1CC2(CC(n3cnc(C4CC4)n3)C2)C1 [Example 479, [6-(3-cyclopropyl-1,2,4-triazol-1-yl)-2-azaspiro[3.3]heptan-2-yl]-[3-[2-[3-(trifluoromethyl)azetidin-1-yl]pyrimidin-5-yl]azetidin-1-yl]methanone] | 7.5
CS(=O)(=O)c1cncc(CC2CC3(C2)CN(C(=O)N2CC4(CC(n5cnc(C(F)(F)F)n5)C4)C2)C3)c1 [Example 457, [6-[(5-methylsulfonyl-3-pyridyl)methyl]-2-azaspiro[3.3]heptan-2-yl]-[6-[3-(trifluoromethyl)-1,2,4-triazol-1-yl]-2-azaspiro[3.3]heptan-2-yl]methanone] | 11
O=C(N1CC(C23CC(NCC4(C(F)(F)F)CC4)(C2)C3)C1)N1CC2(CC(n3cnc(C4(O)CC4)n3)C2)C1 [Example 395, [6-[3-(1-hydroxycyclopropyl)-1,2,4-triazol-1-yl]-2-azaspiro[3.3]heptan-2-yl]-[3-[3-[[1-(trifluoromethyl)cyclopropyl]methylamino]-1-bicyclo[1.1.1]pentanyl]azetidin-1-yl]methanone] | 14.7
O=C(N1CC(OCc2ccc(S(F)(F)(F)(F)F)cc2)C1)N1CC2(CC(n3cnc(C(F)(F)F)c3)C2)C1 [Example 307, [3-[[4-(pentafluoro-λ^6-sulfanyl)phenyl]methoxy]azetidin-1-yl]-[6-[4-(trifluoromethyl)imidazol-1-yl]-2-azaspiro[3.3]heptan-2-yl]methanone] | 136
O=C(N1CC2(CC(Oc3ccc(C(F)(F)F)nn3)C2)C1)N1CC2(CC(n3cnc(C4CC4)n3)C2)C1 [Example 62, [6-(3-cyclopropyl-1,2,4-triazol-1-yl)-2-azaspiro[3.3]heptan-2-yl]-[6-[6-(trifluoromethyl)pyridazin-3-yl]oxy-2-azaspiro[3.3]heptan-2-yl]methanone] | 7.2
CS(=N)(=O)c1cccc(CC2CC3(C2)CN(C(=O)N2CC4(CC(n5cnc(C6CC6)n5)C4)C2)C3)c1 (single isomer, unassigned) [Example 441, [6-(3-cyclopropyl-1,2,4-triazol-1-yl)-2-azaspiro[3.3]heptan-2-yl]-[6-[[3-(methylsulfonimidoyl)phenyl]methyl]-2-azaspiro[3.3]heptan-2-yl]methanone] | 1.97
O=C(N1CC(OCc2ccc(S(=O)(=O)C(F)(F)F)cc2)C1)N1CC2(CC(n3cnc(C4CC4)n3)C2)C1 [Example 499, [6-(3-cyclopropyl-1,2,4-triazol-1-yl)-2-azaspiro[3.3]heptan-2-yl]-[3-[[4-(trifluoromethylsulfonyl)phenyl]methoxy]azetidin-1-yl]methanone] | 4.38
